Results reported in patent publication US20240132513A1, “BENZAZEPINE DERIVATIVES, COMPOSITIONS, AND METHODS FOR TREATING COGNITIVE IMPAIRMENT” (AGENEBIO, INC., priority 2022, published 2024).

target: α5β3γ2 GABAA R (Homo sapiens, UniProt P18507+P31644); assay: Binding activity on GABAA R: inhibition of [3H]Ro15-1788 binding, α5 containing receptor; conditions: not given
Description: Tissue culture and Membrane Preparation: The binding was performed on Ltk cells stably expressing GABAA R: […], α2β3γ2, α3β3γ2 and α5β3γ2 (provided by Merck Co., NJ, USA). Cells were seeded in 100 mm culture plates in DMEM/F12 medium containing 10% serum and antibiotics in 5% CO2 and allowed to grow for 1-2 days. GABAAR expression was then induced by dexamethasone as follows: 0.5 μM for 1 day for α5 containing and 2 μM for 3 days for α1, α2 and α3 containing GABAARs. After induction, cells were collected by scraping into Dulbecco's Phosphate buffered saline (DPBS, pH 7.4, Invitrogen, Carlsbad, CA, USA) and centrifuged at 150×g for 10 min. The pellet was washed twice by re-suspension and centrifugation. The cell pellets from at least 5 different preps were combined, suspended in the binding assay buffer (50 mM KH2PO4; 1 mM EDTA; 0.2 M KCl, pH 7.4) and membranes prepared by sonication (3-5 times, 30 sec) using Branson Sonifier 150 (G. Heinmann, Germany). Protein content was determined using BCA assay (Bio-Rad Labs, Reinach, Switzerland) with Bovine Serum Albumin (Sigma Aldrich, St. Louis, MO, USA) as the standard. Aliquots were prepared and stored at −20° C. for further use in binding assays.
Ligand Binding: Saturation binding curves were obtained by incubating membranes with increasing concentrations (0.01-8 nM) of [^3H]Rol5-1788 (Flumazepil, 75-85 Ci/mmol, PerkinElmer, MA, USA), with nonspecific binding measured in the presence of 10 μM diazepam.
All binding assays were performed for 1 h at 4° C. in assay buffer. The total assay volume was 0.5 ml containing 0.2 mg/ml protein for α5 and 0.4 mg/ml for α1, α2, and α3 containing GABAAR membranes. Incubations were terminated by filtration through GF/B filters using a 24-Cell Harvestor (Brandel, Gaithersburg, MD, USA) followed by 3 washes with ice-cold assay buffer. Filters were transferred to scintillation vials, 5 ml scintillation liquid added, vortex-mixed and kept in dark. Next day, radioactivity was obtained using a scintillation counter (Beckman Coulter, Brea, CA, USA). All assays were performed in triplicate.
Data Analyses: Saturation and inhibition curves were obtained using GraphPad Prism software (GraphPad Software, Inc., CA, USA).

Chain of α5β3γ2 GABAA R (P31644 32-462): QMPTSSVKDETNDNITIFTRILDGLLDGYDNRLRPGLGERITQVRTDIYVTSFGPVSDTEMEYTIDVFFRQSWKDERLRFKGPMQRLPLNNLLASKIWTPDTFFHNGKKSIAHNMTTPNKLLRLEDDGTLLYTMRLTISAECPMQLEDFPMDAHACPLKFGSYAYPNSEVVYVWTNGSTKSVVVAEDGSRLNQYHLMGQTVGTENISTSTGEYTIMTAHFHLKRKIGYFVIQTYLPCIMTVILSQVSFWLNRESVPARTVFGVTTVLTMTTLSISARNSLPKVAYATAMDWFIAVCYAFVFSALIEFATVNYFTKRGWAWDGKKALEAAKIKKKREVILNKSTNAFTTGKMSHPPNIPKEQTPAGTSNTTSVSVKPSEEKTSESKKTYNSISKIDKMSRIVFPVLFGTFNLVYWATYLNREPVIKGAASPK
Chain of α5β3γ2 GABAA R (P28472 26-473 partner): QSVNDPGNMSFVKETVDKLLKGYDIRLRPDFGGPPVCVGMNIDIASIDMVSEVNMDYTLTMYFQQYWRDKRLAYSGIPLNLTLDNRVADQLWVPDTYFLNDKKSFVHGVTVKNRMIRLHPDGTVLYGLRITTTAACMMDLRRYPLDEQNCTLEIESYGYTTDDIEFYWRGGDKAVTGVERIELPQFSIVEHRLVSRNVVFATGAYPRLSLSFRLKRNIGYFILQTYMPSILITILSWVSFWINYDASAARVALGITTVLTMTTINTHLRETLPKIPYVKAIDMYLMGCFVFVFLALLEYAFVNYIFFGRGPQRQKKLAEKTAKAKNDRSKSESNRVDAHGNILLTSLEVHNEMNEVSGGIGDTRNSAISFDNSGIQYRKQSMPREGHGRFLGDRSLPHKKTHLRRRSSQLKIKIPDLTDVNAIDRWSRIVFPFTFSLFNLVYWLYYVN
Chain of α5β3γ2 GABAA R (P18507 40-475): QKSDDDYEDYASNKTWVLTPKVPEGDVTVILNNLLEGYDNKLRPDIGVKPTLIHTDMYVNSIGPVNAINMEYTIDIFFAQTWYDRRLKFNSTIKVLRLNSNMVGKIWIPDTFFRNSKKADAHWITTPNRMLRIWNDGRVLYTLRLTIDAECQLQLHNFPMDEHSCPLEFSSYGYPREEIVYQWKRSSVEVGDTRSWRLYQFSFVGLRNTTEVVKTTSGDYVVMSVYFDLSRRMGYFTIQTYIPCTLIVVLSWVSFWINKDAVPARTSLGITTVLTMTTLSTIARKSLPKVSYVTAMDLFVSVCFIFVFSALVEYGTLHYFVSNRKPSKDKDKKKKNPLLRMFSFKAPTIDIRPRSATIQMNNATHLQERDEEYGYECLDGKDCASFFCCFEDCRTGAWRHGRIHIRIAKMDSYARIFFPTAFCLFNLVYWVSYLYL

| Compound | Ki [nM] |
| --- | --- |
| Cn1cc2c(n1)-c1cc(Cl)ccc1-n1cnc(-c3noc(CN4CCCC4=O)n3)c1C2 [Compound 382] | < 100 |
| COc1ccc2c(c1)-c1c(cnn1Cc1ccccc1)Cc1c(-c3nc(C(C)C)no3)ncn1-2 [Compound 8] | 100 to 1000 |
| CC(=O)N(C)Cc1coc(-c2ncn3c2Cc2cn(C)nc2-c2cc(Cl)ccc2-3)n1 [Compound 358] | < 100 |
| COc1ccc2c(c1)-c1nn(C)cc1Cc1c(-c3nc(CN(C)C(C)=O)co3)ncn1-2 [Compound 378] | 100 to 1000 |
| CC(C)OCc1nc(-c2ncn3c2Cc2cn(CC4CCCO4)nc2-c2cc(Cl)ccc2-3)no1 (centres unmarked) [Compound 307] | < 100 |
| COc1ccc2c(c1)-c1nn(Cc3cccc(F)c3)cc1Cc1c(-c3nc(C)no3)ncn1-2 [Compound 22] | < 100 |
| Cn1cc2c(n1)-c1cc(Cl)ccc1-n1cnc(-c3nc(CN4CCCC4)co3)c1C2 [Compound 345] | < 100 |
| Clc1ccc2c(c1)-c1c(cnn1Cc1ccccc1)Cc1c(C3=N[C@H](c4ccccc4)CO3)ncn1-2 [Compound 5] | 100 to 1000 |
| COc1ccc2c(c1)-c1nn(C)cc1Cc1c(-c3noc(C4(OC)CCOC4)n3)ncn1-2 (centres unmarked) [Compound 354] | < 100 |
| COc1ccc2c(c1)-c1nn(C)cc1Cc1c(-c3nnc(C4CCOC4)o3)ncn1-2 (centres unmarked) [Compound 291] | 100 to 1000 |
| COCCn1cc2c(n1)-c1cc(OC)ccc1-n1cnc(-c3noc(C4(OC)CC4)n3)c1C2 [Compound 339] | < 100 |
| Cn1cc2c(n1)-c1cc(Cl)ccc1-n1cnc(-c3noc(Cn4ccnc4)n3)c1C2 [Compound 373] | < 100 |
| COCCn1cc2c(n1)-c1cc(OC)ccc1-n1cnc(-c3noc(C(C)(C)OC)n3)c1C2 [Compound 311] | < 100 |
| COc1ccc2c(c1)-c1[nH]ncc1Cc1c(-c3cnn(C)c3)ncn1-2 [Compound 82] | 100 to 1000 |
| COc1ccc2c(c1)-c1nn(C)cc1Cc1c(-c3noc(CN4CCOCC4)n3)ncn1-2 [Compound 348] | < 100 |
| COc1ccc2c(c1)-c1[nH]ncc1Cc1c(-c3ncco3)ncn1-2 [Compound 71] | < 100 |
| COc1ccc2c(c1)-c1nn(Cc3ccccc3)cc1Cc1c(-c3nc(C(C)(C)C)no3)ncn1-2 [Compound 17] | < 100 |
| COc1ccc2c(c1)-c1nn(C)cc1Cc1c(-c3nnc(COCC(F)(F)F)o3)ncn1-2 [Compound 334] | < 100 |
| Cc1noc(-c2ncn3c2Cc2cnn(C)c2-c2cc(Cl)ccc2-3)n1 [Compound 3] | < 100 |
| COCCc1nc(-c2ncn3c2Cc2cn(C)nc2-c2cc(Cl)ccc2-3)no1 [Compound 387] | < 100 |
| CC#Cc1ncn2c1Cc1cn[nH]c1-c1cc(Cl)ccc1-2 [Compound 65] | < 100 |

| Compound | Ki [nM] |
| --- | --- |
| Cn1ncc2c1-c1cc(Cl)ccc1-n1cnc(C#CC(C)(C)C)c1C2 [Compound 102] | < 100 |
| COCc1nnc(-c2ncn3c2Cc2cn(C)nc2-c2cc(OC)ccc2-3)o1 [Compound 326] | < 100 |
| COc1ccc2c(c1)-c1[nH]ncc1Cc1c(-c3cnco3)ncn1-2 [Compound 95] | < 100 |
| COc1ccc2c(c1)-c1nn(CC3COC3)cc1Cc1c(-c3noc(C4(OC)CC4)n3)ncn1-2 [Compound 331] | < 100 |
| Clc1ccc2c(c1)-c1nn(CC3CCCO3)cc1Cc1c(-c3noc(C4CCOCC4)n3)ncn1-2 (centres unmarked) [Compound 362] | < 100 |
| COc1ccc2c(c1)-c1c(cnn1C)Cc1c(-c3noc(C(C)(C)OC)n3)ncn1-2 [Compound 186] | 100 to 1000 |
| CCn1cc2c(n1)-c1cc(OC)ccc1-n1cnc(-c3nc(C4CC4)no3)c1C2 [Compound 152] | < 100 |
| CCn1cc2c(n1)-c1cc(Cl)ccc1-n1cnc(-c3noc(C(C)(C)OC)n3)c1C2 [Compound 196] | < 100 |
| COc1ccc2c(c1)-c1n[nH]cc1Cc1c(-c3noc(C4(F)CC4)n3)ncn1-2 [Compound 191] | < 100 |
| COc1ccc2c(c1)-c1nn(C)cc1Cc1c(-c3noc(COC(F)(F)F)n3)ncn1-2 [Compound 359] | < 100 |
| COCCOCc1coc(-c2ncn3c2Cc2cn(C)nc2-c2cc(Cl)ccc2-3)n1 [Compound 278] | < 100 |
| COc1ccc2c(c1)-c1nn(CCOC(C)(C)C)cc1Cc1c(-c3noc(C(C)(C)OC)n3)ncn1-2 [Compound 333] | < 100 |
| CCn1cc2c(n1)-c1cc(OC)ccc1-n1cnc(-c3nc(C(C)(C)OC)no3)c1C2 [Compound 234] | < 100 |
| COc1ccc2c(c1)-c1nn(CC3CCOC3)cc1Cc1c(-c3noc(C(C)(C)OC)n3)ncn1-2 (centres unmarked) [Compound 374] | < 100 |
| Cn1ncc2c1-c1cc(Cl)ccc1-n1cnc(-c3cnn(Cc4ccccc4)c3)c1C2 [Compound 164] | < 100 |
| COc1ccc2c(c1)-c1nn(C)cc1Cc1c(-c3noc(C4(OC)CCCC4)n3)ncn1-2 [Compound 355] | < 100 |
| Clc1ccc2c(c1)-c1nn(C3CCOC3)cc1Cc1c(-c3cnn(CC4CCOCC4)c3)ncn1-2 (centres unmarked) [Compound 321] | < 100 |
| COc1ccc2c(c1)-c1nn(Cc3ccccc3F)cc1Cc1c(-c3cnn(Cc4ccccc4)c3)ncn1-2 [Compound 77] | < 100 |
| Clc1ccc2c(c1)-c1[nH]ncc1Cc1c(-c3cnoc3)ncn1-2 [Compound 61] | 100 to 1000 |
| COCC(COC)OCc1coc(-c2ncn3c2Cc2cn(C)nc2-c2cc(Cl)ccc2-3)n1 [Compound 332] | < 100 |
| COc1ccc2c(c1)-c1nn(C)cc1Cc1c(-c3noc(C(C)(C)CO)n3)ncn1-2 [Compound 376] | < 100 |

same assay, conditions: ranges of the column heads; [3H]Ro15-1788, Ltk cell membranes

| Compound | Ki [nM] |
| --- | --- |
| COc1ccc2c(c1)-c1oncc1Cc1c(C3=N[C@H](c4ccccc4)CO3)ncn1-2 [Compound 49] | > 1000 |
| COc1ccc2c(c1)-c1c(cnn1CC1CCOC1)Cc1c(-c3nc(C(C)C)no3)ncn1-2 (centres unmarked) [Compound 246] | < 100 |
| COCc1noc(-c2ncn3c2Cc2cn(CC4COC4)nc2-c2cc(OC)ccc2-3)n1 [Compound 298] | < 100 |
| CCOC(=O)c1cnc2n1CC(=O)N(Cc1ccc(OC)cc1OC)c1cc(Cl)ccc1-2 [Compound 25] | > 1000 |
| C#Cc1ncn2c1Cc1cnoc1-c1cc(OC)ccc1-2 [Compound 51] | > 1000 |
| COc1ccc2c(c1)-c1nn(C)cc1Cc1c(-c3noc(C4CCOCC4)n3)ncn1-2 [Compound 324] | < 100 |
| COc1ccc2c(c1)-c1oncc1Cc1c(-c3nc(C)no3)ncn1-2 [Compound 42] | > 1000 |
| COc1ccc2c(c1)-c1c(cnn1C)Cc1c(-c3nc(C(C)(C)C)no3)ncn1-2 [Compound 19] | > 1000 |
| COc1ccc2c(c1)-c1oncc1Cc1c(C3=N[C@@H](c4ccccc4)CO3)ncn1-2 [Compound 48] | > 1000 |
| Cc1ccc(-c2noc(C)c2COc2ccc(C(=O)NC3CCOCC3)nn2)cn1 [Compound 238] | < 100 |
| CC(C)c1noc(-c2cnc3n2Cc2nncn2-c2cc(Cl)ccc2-3)n1 [Compound 58] | > 1000 |
| Cc1noc(-c2ncn3c2Cc2cnoc2-c2cc(Cl)ccc2-3)n1 [Compound 69] | > 1000 |
| COc1ccc2c(c1)-c1[nH]ncc1Cc1c(-c3cn(C)cn3)ncn1-2 [Compound 80] | > 1000 |
| CC(C)C[C@@H]1COC(c2ncn3c2Cc2cnoc2-c2cc(Cl)ccc2-3)=N1 [Compound 68] | > 1000 |
| C[C@@H]1COC(c2ncn3c2Cc2cnn(Cc4ccccc4)c2-c2cc(Cl)ccc2-3)=N1 [Compound 12] | 100 to 1000 |
| CC(C)c1noc(-c2cnc3n2CC(=O)Nc2cc(Cl)ccc2-3)n1 [Compound 27] | > 1000 |
| CN1C(=O)Cn2c(C3=N[C@H](c4ccccc4)CO3)cnc2-c2ccc(Cl)cc21 [Compound 29] | > 1000 |
